Converted amounts (≈) assume the structure as drawn. Like-named read-outs stand apart in the source and are kept apart here.

In assay [1] the test system is resistant strains of A. baumannii and one strain of Acinetobacter sp. The experiment in a line: MIC without and with sub-inhibitory polymyxin B, whole panel / MIC ranges (Example 4; also strains not listed separately). The class given is cell-based.
Assay [2] has as its system Acinetobacter sp. (H064200250). The experiment in a line: MIC without and with sub-inhibitory polymyxin B (Example 4). Format: cell-based. The following applies: Acinetobacter, without polymyxin B, read-out: MIC without PB.
Assay [3] relates to Acinetobacter sp. (H064200250). The experiment in a line: Preliminary MBC without and with sub-inhibitory polymyxin B (Example 4). The class given is cell-based. The following applies: Acinetobacter, without polymyxin B, preliminary MBC, read-out: MBC without PB. The procedure:
The plates were incubated for 18-20 hours at 37° C. The MBC was read as the lowest concentration at which colony growth was ca. 90% less than the positive control (i.e. usually where single colonies or no colonies were observed).

A further assay relates to A. baumannii A473. The experiment in a line: MIC without and with sub-inhibitory polymyxin B (Example 4). The class given is cell-based, Acinetobacter baumannii. The following applies: A. baumannii A473; +0.06 μg/ml polymyxin B; 2nd experiment; visual reading.
The next assay relates to A. baumannii A387. The description is as above. The class given is cell-based, Acinetobacter baumannii. The following applies: A. baumannii A387, +0.06 μg/ml polymyxin B.
In the next assay the test system is A. baumannii A329. The assay is described as above. Format: cell-based, Acinetobacter baumannii. The following applies: A. baumannii A329; +0.06 μg/ml polymyxin B; 2nd experiment; visual reading.
Assay [4] deals with A. baumannii ATCC 19606. The experiment in a line: Preliminary MBC without and with sub-inhibitory polymyxin B (Example 4). Format: cell-based, Acinetobacter baumannii. The following applies: Acinetobacter baumannii, ATCC19606, A. baumannii ATCC 19606, without polymyxin B, preliminary MBC, read-out: MBC without PB.
Another assay has as its system A. baumannii A472. The experiment in a line: MIC without and with sub-inhibitory polymyxin B (Example 4). Format: cell-based, Acinetobacter baumannii. The following applies: A. baumannii A472; ratio MIC without PB to MIC + PB, PB […]; 2nd experiment.
In assay [5] the test system is 11 strains of A. baumannii and one strain of Acinetobacter sp. The experiment in a line: Preliminary MBC without and with sub-inhibitory polymyxin B, whole panel (Example 4; also strains not listed separately). The following applies: Acinetobacter baumannii, A. baumannii A14, without polymyxin B, 2nd experiment, read-out: MBC without PB. Format: cell-based.
The test system of assay [6] is Acinetobacter spp. H064200250. The experiment in a line: MIC determination for Acinetobacter strains (Example 3). Format: cell-based, Acinetobacter sp. The following applies: LEV R, CIP R, MRP R, IMP I.
The test system of the next assay is B. thailandensis. The experiment in a line: microbe, parasite or virus in culture. The class given is cell-based, Burkholderia thailandensis. The following applies: for MIC90: Burkholderia thailandensis, read-out: MIC90 B. thailandensis.
In assay [7] the test system is S. aureus BAA-1556 (USA300-Type MRSA, FQ-R). In words: MIC, selected panel of Gram-positive and Gram-negative strains (Example 5). Format: cell-based, Staphylococcus aureus.
The subject of a further assay is E. coli ATCC 25922. The assay is described as above. The class given is cell-based, Escherichia coli.
Assay [8] relates to A. baumannii ATCC 19606. The description is as above. The class given is cell-based, Acinetobacter baumannii.
For a further assay, the system named is P. aeruginosa ATCC 27853. Described as above. The class given is cell-based.
The test system of assay [9] is S. aureus ATCC 43300 (MRSA, FQ-S). The description is as above. The class given is cell-based, Staphylococcus aureus.
The next assay deals with S. aureus ATCC 25923. The description is as above. Format: cell-based.
The subject of another assay is B. thailandensis E264. In words: microbe, parasite or virus in culture. The following applies: Burkholderia thailandensis, E264, read-out: MIC B. thailandensis E264. Format: cell-based, Burkholderia thailandensis.
Where [10] appears, read: Acinetobacter spp. H064200250, 1st experiment.
The mark [11] stands for this setting: Staphylococcus aureus, read-out: MIC S. aureus BAA-1556 (USA300-Type MRSA, FQ-R).
[12] abbreviates: Escherichia coli, ATCC25922, read-out: MIC E. coli ATCC 25922.
[13] abbreviates: Acinetobacter baumannii, ATCC19606, read-out: MIC A. baumannii ATCC 19606.
Where [14] appears, read: Pseudomonas aeruginosa, ATCC27853, read-out: MIC P. aeruginosa ATCC 27853.
The mark [15] stands for this setting: Staphylococcus aureus, read-out: MIC S. aureus ATCC 43300 (MRSA, FQ-S).
[16] abbreviates: Staphylococcus aureus, ATCC25923, read-out: MIC S. aureus ATCC 25923.

As for `NCC[C@H](O)C(=O)N[C@@H]1C[C@H](N)[C@@H](O[C@H]2O[C@H](CN)[C@@H](O)[C@H](O)[C@H]2O)[C@H](O)[C@H]1O[C@H]1O[C@H](CO)[C@@H](O)[C@H](N)[C@H]1O` [Amikacin, reference compound], in assay [1], the “fold greater activity (fold lower MIC) in presence of polymyxin B compared to without polymyxin B” value was “not significantly affected”. Besides, in [1] (A. baumannii NCTC 13301, +[…] polymyxin B, 2nd experiment, visual reading), the “MIC +[…] PB” value came out at 128 µg/mL (≈ 219 µM). Further, the MIC in assay [2] (Acinetobacter spp. H064200250 (OXA51), 2nd experiment, visual reading) worked out at 8 µg/mL (≈ 13.7 µM); in assay [2] (setting [10]), 16 µg/mL (≈ 27.3 µM); in [6], 16 µg/mL (≈ 27.3 µM). The MBC stood at 8 µg/mL (≈ 13.7 µM) in [3] (Acinetobacter spp. H064200250 (OXA51), 2nd experiment); 16 µg/mL (≈ 27.3 µM) in [3] (setting [10]); 16 µg/mL (≈ 27.3 µM) with A. baumannii ATCC 19606 [4] (2nd experiment); 16 µg/mL (≈ 27.3 µM) in the assay on A. baumannii ATCC 19606 [4] (1st experiment); 16 µg/mL (≈ 27.3 µM) in assay [5]. Besides, the “MIC +0.06 μg/ml PB” value is 128 µg/mL with A. baumannii A473; 128 µg/mL in the assay with A. baumannii A387 (2nd experiment, visual reading); 128 µg/mL in the assay on A. baumannii A329. Moreover, the MIC ratio without/with polymyxin B with A. baumannii A472 is at least 4 µg/mL.

For the compound `Cc1cc(-c2ccn3c(=O)c(C(=O)O)cc(C4CC4)c3c2C)c(Cl)cc1N` [Compound 11, 8-(2-chloro-4-amino-5-methyl-phenyl)-1-cyclopropyl-9-methyl-4-oxo-quinolizine-3-carboxylic acid], the MIC90 with B. thailandensis was under 0.048 µg/mL.

For the compound `Cc1c(-c2ccc(C#N)cc2)ccn2c(=O)c(C(=O)O)cc(C3CC3)c12` [Compound 14, 8-(4-cyanophenyl)-1-cyclopropyl-9-methyl-4-oxo-quinolizine-3-carboxylic acid], the MIC90 in the assay with B. thailandensis was under 0.048 µg/mL.

`Cc1c(-c2ccc(CN)o2)ccn2c(=O)c(C(=O)O)cc(C3CC3)c12` [Compound 12]: the MIC90 in the assay on B. thailandensis came to 0.39 µg/mL (≈ 1.15 µM).

On to “8-[(3S)-3-aminocyclopentyl]-1- cyclopropyl-7-fluoro-9-methyl- 4-oxo-quinolizine-3-carboxylic acid [Compound 10]”, for which, in assay [1] (A. baumannii A14, ratio, PB 0.06 μg/ml, 1st experiment), the “MIC without PB/MIC + PB” value came out at 1. Further, the “MIC +0.06 μg/ml PB” value in the assay with A. baumannii A387 (1st experiment) came out at 0.5 µg/mL. Moreover, the “Dilutions improvement shift on B. thailandensis MIC90 (between pH 7 and pH 5)” value with B. thailandensis (pH 7 versus pH 5) was “Yes, 2×”.

For the compound `Cc1c(-c2ccc3[nH]cnc3c2)ccn2c(=O)c(C(=O)[O-])cc(C3CC3)c12.[K+]` [Compound 74K salt, potassium 8-(1H-benzo[d]imidazol-5-yl)-1-cyclopropyl-9-methyl-4-oxo-4H-quinolizine-3-carboxylate], the MIC in assay [7] (setting [11]) was 0.5 µg/mL; in the assay with E. coli ATCC 25922 (setting [12]), 0.064 to 0.125 µg/mL; in the assay on A. baumannii ATCC 19606 [8] (setting [13]), 0.5 µg/mL; in the assay on P. aeruginosa ATCC 27853 (setting [14]), 8 µg/mL; in assay [9] (setting [15]) it was 0.016 µg/mL; in the assay with S. aureus ATCC 25923 (setting [16]) it was 0.016 µg/mL. Further, the MIC with B. thailandensis E264 is 2 µg/mL.

On to `Cc1c(-c2ccc(C(=O)C(F)(F)F)cc2)ccn2c(=O)c(C(=O)O)cc(C3CC3)c12` [Compound 63, 8-[4-(2,2,2-trifluoroacetyl)phenyl]-1-cyclopropyl-9-methyl-4-oxo-quinolizine-3-carboxylic acid], for which the MIC in assay [7] (Staphylococcus aureus; read-out: MIC S. aureus BAA-1556 (USA300-Type MRSA, FQ-R)) is 1 µg/mL (≈ 2.41 µM); in the assay with E. coli ATCC 25922 (Escherichia coli, ATCC25922; read-out: MIC E. coli ATCC 25922), 0.5 µg/mL (≈ 1.2 µM); with A. baumannii ATCC 19606 [8] (Acinetobacter baumannii, ATCC19606; read-out: MIC A. baumannii ATCC 19606) it was 2 µg/mL (≈ 4.82 µM); in the assay on P. aeruginosa ATCC 27853 (Pseudomonas aeruginosa, ATCC27853; read-out: MIC P. aeruginosa ATCC 27853), over 8 µg/mL; in assay [9] (Staphylococcus aureus; read-out: MIC S. aureus ATCC 43300 (MRSA, FQ-S)), 0.032 µg/mL (≈ 0.077 µM); with S. aureus ATCC 25923 (Staphylococcus aureus, ATCC25923; read-out: MIC S. aureus ATCC 25923) it was 0.064 µg/mL (≈ 0.154 µM). Moreover, the MIC in the assay with B. thailandensis E264 was found to be 2 µg/mL (≈ 4.82 µM).

Take `Cc1c(-c2cccc3[nH]ncc23)ccn2c(=O)c(C(=O)[O-])cc(C3CC3)c12.[K+]` [Compound 82K salt, potassium 8-(1H-indazol-4-yl)-1-cyclopropyl-9-methyl-4-oxo-4H-quinolizine-3-carboxylate]: the MIC was 1 µg/mL in [7] (setting [11]); 0.125 to 0.25 µg/mL in the assay on E. coli ATCC 25922 (setting [12]); 1 µg/mL in the assay with A. baumannii ATCC 19606 [8] (setting [13]); 8 µg/mL with P. aeruginosa ATCC 27853 (setting [14]); 0.016 µg/mL in assay [9] (setting [15]); 0.016 µg/mL in the assay on S. aureus ATCC 25923 (setting [16]). Further, the MIC with B. thailandensis E264 is 4 µg/mL.

`Cc1ccc(-c2ccn3c(=O)c(C(=O)O)cc(C4CC4)c3c2C)cc1` [Compound 15, 8-(p-tolyl)-1-cyclopropyl-9-methyl-4-oxo-quinolizine-3-carboxylic acid]: the MIC90 in the assay on B. thailandensis is under 0.048 µg/mL.

As for `Cc1c(-c2ccc(CN)s2)ccn2c(=O)c(C(=O)O)cc(C3CC3)c12` [Compound 13], in the assay on B. thailandensis, the MIC90 was 0.195 µg/mL (≈ 0.55 µM).

For the compound `Cc1c(-c2ccc(O)c(CN)c2)ccn2c(=O)c(C(=O)[O-])cc(C3CC3)c12.[K+]` [Compound 72K salt, potassium 8-(3-(aminomethyl)-4-hydroxyphenyl)-1-cyclopropyl-9-methyl-4-oxo-4H-quinolizine-3-carboxylate], the MIC in assay [7] (setting [11]) was 0.25 µg/mL; with E. coli ATCC 25922 (setting [12]), 0.008 to 0.016 µg/mL; with A. baumannii ATCC 19606 [8] (setting [13]) it was 0.25 µg/mL; in the assay on P. aeruginosa ATCC 27853 (setting [14]) it was 0.5 µg/mL; in assay [9] (setting [15]) it was 0.008 to 0.016 µg/mL; with S. aureus ATCC 25923 (setting [16]) it was 0.008 µg/mL. The MIC in the assay with B. thailandensis E264 amounted to 2 µg/mL.

The term MBC denotes the lowest tested concentration that kills the bacteria rather than only halting them.

The record behind these values is US10155021B2, “Antimicrobial 4-oxoquinolizines” (Emergent Product Development Gaithersburg Inc., priority 2011, dated 2018).
